Assay results published in patent publication US8450525B2, “Histone deacetylase inhibitors” (Orchid Chemicals & Pharmaceuticals Limited, priority 2007, dated 2013).

Experiments:
recombinant HDAC1 enzyme = molecular target: T1, recombinant HDAC1 enzyme (Homo sapiens, UniProt Q13547); experiment: HDAC1 inhibitory activity, recombinant enzyme; type: biochemical; details: recombinant HDAC1 (BIOMOL); read-out: HDAC1 inhibition (IC50)
T1 construct: purchased BIOMOL, USA
Method: Assay was done in 96-well black microplate and total volume of the assay was 100 μL. Mouse liver enzyme (10 mg/ml) was diluted 1:6 with HDAC buffer. Enzyme cocktail was made of 10 μL of diluted enzyme and 30 μL of HDAC buffer. 40 μl of enzyme cocktail followed by 10 μL of test compound (1 μM and 10 μM) or buffer (control) was added to each well. The plate was pre-incubated at 37° C. for 5 minutes. The HDAC reaction was started by adding 50 μl of HDAC substrate Boc-Lys (Ac)-AMC (Bachem AG, Switzerland). The plate was incubated at 37° C. for 30 minutes. The reaction was stopped by adding 100 μL of Trypsin stop solution and incubating at 37° C. for 15-30 minutes. Measuring the fluorescence at excitation wavelength of 360 nm and emission wavelength of 460 nm monitored the release of AMC. Buffer alone and substrate alone served as blank. […] (Dennis Wegener et al, Anal. Biochem, 321, 2003, 202-208).
Since the benzamide type compounds are known to have potential for HDAC class 1 specificity, active compounds were tested for HDAC1 inhibitory activity. The assay was carried out, as previously described using recombinant HDAC1 enzyme (BIOMOL, USA) and following manufacturer's instructions.

[1] = molecular target: T2, HDAC (Mouse Liver Extract); experiment: HDAC inhibition assay using Boc-Lys(Ac)-AMC substrate, mouse liver enzyme; type: biochemical;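 for IC50: IC50 for inhibition of HDAC activity in mouse liver extract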
T2 construct: Mouse liver enzyme (10 mg/ml) was diluted 1:6 with HDAC buffer

HCT 116 (colon) cells = experiment: Anti-cancer screen, growth inhibition (MTT); type: cell-based; details: Homo sapiens, HCT-116 cells, 48 hours of incubation
Procedure, shortened: (§1)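 MTT added for 3 h at 37° C, formazan dissolved in DMSO and A570 read. A T0 plate was measured at compound addition.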

NCI-H460 (lung) cells = experiment: Anti-cancer screen, growth inhibition (MTT); type: cell-based; details: Homo sapiens, 48 hours of incubation
Procedure, shortened: as §1

U251 (glioma) cells = experiment: Anti-cancer screen, growth inhibition (MTT); type: cell-based; details: Homo sapiens, U-251 cells, 48 hours of incubation
Procedure, shortened: as §1

T1 sequence (Q13547 whole entry): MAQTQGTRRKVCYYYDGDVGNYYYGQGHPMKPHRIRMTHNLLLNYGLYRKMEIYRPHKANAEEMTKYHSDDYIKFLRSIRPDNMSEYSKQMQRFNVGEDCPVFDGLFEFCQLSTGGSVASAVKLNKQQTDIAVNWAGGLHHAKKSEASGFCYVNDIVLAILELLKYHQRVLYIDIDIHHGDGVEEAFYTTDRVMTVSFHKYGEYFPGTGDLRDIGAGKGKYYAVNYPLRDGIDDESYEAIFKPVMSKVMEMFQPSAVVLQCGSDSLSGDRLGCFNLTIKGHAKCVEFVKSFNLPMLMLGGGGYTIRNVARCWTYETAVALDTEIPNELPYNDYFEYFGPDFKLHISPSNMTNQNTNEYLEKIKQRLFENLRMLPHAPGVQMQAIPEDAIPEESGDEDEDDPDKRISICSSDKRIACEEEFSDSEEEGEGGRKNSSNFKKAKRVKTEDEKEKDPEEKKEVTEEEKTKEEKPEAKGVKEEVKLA

| Structure (SMILES) | IC50 (recombinant HDAC1 enzyme) [µM] | IC50 [1] [µM] | HDAC Inhibition % (1 μM) [1] [%] | HDAC Inhibition % (10 μM) [1] [%] | GI50 (HCT 116 (colon) cells) [µM] | GI50 (NCI-H460 (lung) cells) [µM] | GI50 (U251 (glioma) cells) [µM] |
| --- | --- | --- | --- | --- | --- | --- | --- |
| Nc1ccccc1NC(=O)c1ccc(C=C(C(=O)NC2CC2)c2ccccc2)cc1 [Example 107, N-(2-Aminophenyl)-4-(3-(cyclopropylamino)-2-phenyl-3-oxoprop-1-en-1-yl)benzamide] | 0.18 | 12 | 34.1 | 58.4 | 2 | 5 | 4.5 |
| Nc1ccccc1NC(=O)c1ccc(/C=C(/C(=O)NC2CC2)c2ccc3c(c2)OCO3)cc1 [Example 111, N-(2-Aminophenyl)-4-(3-(cyclopropylamino)-2-(1,3-benzodioxol-5-yl)-3-oxoprop-1-en-1-yl)benzamide] | 0.1 | 8 | 24.8 | 52.2 | 1.1 | 2.1 | 1.5 |
| Nc1ccccc1NC(=O)c1ccc(/C=C(/C(=O)NC2CC2)c2ccccc2Cl)cc1 [Example 112, N-(2-Aminophenyl)-4-(3-(cyclopropylamino)-2-(2-chlorophenyl)-3-oxoprop-1-en-1-yl)benzamide] | 0.049 | 4.5 | 29.9 | 55.7 | 6 | 1.1 | 20 |
| Nc1ccccc1NC(=O)c1ccc(/C=C(/C(=O)NC2CC2)c2cccc(Cl)c2)cc1 [Example 114, N-(2-Aminophenyl)-4-(3-(cyclopropylamino)-2-(3-chlorophenyl)-3-oxoprop-1-en-1-yl)benzamide] | 0.044 | 5.5 | 34.5 | 59.0 | 0.4 | 5 | 4 |
| Nc1ccccc1NC(=O)c1ccc(/C=C(/C(=O)NC2CC2)c2ccc(F)c(F)c2)cc1 [Example 115, N-(2-Aminophenyl)-4-(3-(cyclopropylamino)-2-(3,4-difluorophenyl)-3-oxoprop-1-en-1-yl)benzamide] | 0.068 | 8.3 | 31.1 | 50.1 | 0.1 | 6 | 15 |
| COc1ccc(/C(=C\c2ccc(C(=O)Nc3ccccc3N)cc2)C(=O)NC2CC2)cc1 [Example 116, N-(2-Aminophenyl)-4-(3-(cyclopropylamino)-2-(4-methoxyphenyl)-3-oxoprop-1-en-1-yl)benzamide] | 0.06 | 9 | 32.4 | 55.7 | 0.4 | 6.1 | 11 |
| O=C(NC1CC1)/C(=C/c1ccc(C(=O)NCc2ccc(C(=O)NO)cc2)cc1)c1ccc(C(F)(F)F)cc1 [Example 158, 4-(3-(Cyclopropylamino)-2-(4-trifluoromethylphenyl)-3-oxoprop-1-en-1-yl)-N-(4-(hydroxycarbamoyl)benzyl)benzamide] |  |  | 88.7 | 98.0 | 30 | 25 | 22 |

The remaining lines, values ahead:

| IC50 (recombinant HDAC1 enzyme) [µM] | IC50 [1] [µM] | HDAC Inhibition % (1 μM) [1] [%] | HDAC Inhibition % (10 μM) [1] [%] | GI50 (HCT 116 (colon) cells) [µM] | GI50 (NCI-H460 (lung) cells) [µM] | GI50 (U251 (glioma) cells) [µM] | Structure (SMILES) |
| --- | --- | --- | --- | --- | --- | --- | --- |
| 0.15 | 5 | 45.7 | 71.4 | 0.3 | 5.5 | 5 | Nc1ccccc1NC(=O)c1ccc(/C=C(/C(=O)NC2CC2)c2cccc(F)c2)cc1 [Example 110, N-(2-Aminophenyl)-4-(3-(cyclopropylamino)-2-(3-fluorophenyl)-3-oxoprop-1-en-1-yl)benzamide] |
|  |  | 82.2 | 96.6 | 19 | 18 | 60 | O=C(NC1CC1)/C(=C/c1ccc(C(=O)NCc2ccc(C(=O)NO)cc2)cc1)c1ccc2c(c1)OCO2 [Example 157, 4-(3-(Cyclopropylamino)-2-[benzodioxol-5-yl]-3-oxoprop-1-en-1-yl)-N-(4-(hydroxycarbamoyl)benzyl)benzamide] |
|  |  | 89.3 | 97.0 | 12 | 20 | 11 | O=C(NC1CC1)/C(=C/c1ccc(C(=O)NCc2ccc(C(=O)NO)cc2)cc1)c1ccc(F)c(F)c1 [Example 159, 4-(3-(Cyclopropylamino)-2-(3,4-difluorophenyl)-3-oxoprop-1-en-1-yl)-N-(4-(hydroxycarbamoyl)benzyl)benzamide] |
|  | 0.006 | 87.8 | 97.5 | 8.2 | 5.3 | 3.2 | O=C(CCCCCNC(=O)c1ccc(/C=C(/C(=O)NC2CC2)c2ccccc2)cc1)NO [Example 161] |
|  |  | 86.1 | 95.7 | 19 | 46 | 2 | Cc1ccc(/C(=C\c2ccc(C(=O)NCCCCCC(=O)NO)cc2)C(=O)NC2CC2)cc1 [Example 162, 4-(3-(Cyclopropylamino)-2-(4-methylphenyl)-3-oxoprop-1-en-1-yl)-N-(6-(hydroxyamino)-6-oxohexyl)benzamide] |
|  |  | 81.7 | 97.7 | 32 | 10 | 41 | O=C(CCCCCNC(=O)c1ccc(/C=C(/C(=O)NC2CC2)c2ccccc2F)cc1)NO [Example 163, 4-(3-(Cyclopropylamino)-2-(2-fluorophenyl)-3-oxoprop-1-en-1-yl)-N-(6-(hydroxyamino)-6-oxohexyl)benzamide] |
|  |  | 91.9 | 100.0 | 15 | 28 | 30 | O=C(CCCCCNC(=O)c1ccc(/C=C(/C(=O)NC2CC2)c2cccc(F)c2)cc1)NO [Example 164, 4-(3-(Cyclopropylamino)-2-(3-fluorophenyl)-3-oxoprop-1-en-1-yl)-N-(6-(hydroxyamino)-6-oxohexyl)benzamide] |
|  |  | 91.5 | 96.8 | 5.6 | 15 | 11 | O=C(CCCCCCC(=O)Nc1ccc(/C=C(/C(=O)NC2CC2)c2ccc(F)cc2)cc1)NO [Example 165, N-(4-(3-(Cyclopropylamino)-2-(4-fluorophenyl)-3-oxoprop-1-en-1-yl)phenyl)-N′-hydroxyoctanediamide] |
